Experimental findings from ChEMBL document CHEMBL4619774 (J Med Chem, 2020) are described below.

In general, IC50 refers to the point on the concentration scale where inhibition reaches its midpoint. The low end stands for inhibition by little substance, the high end for a need for much substance. By thermodynamic solubility is commonly meant solubility found after equilibrating the solid with the medium. The Papp B→A is the apparent permeability from the basolateral to the apical side of a cell layer. In general, bioavailability refers to the share of a dose that reaches the circulation, judged against a reference dose that is usually intravenous. Low readings indicate poor availability, high ones good availability. As a reminder, the logD is lipophilicity at a set pH, counting ionised and neutral species. A low value points to lower lipophilicity. As usually defined, the Tmax is the time at which the peak concentration occurs.

The structures appear in SMILES notation. Where only a bound is given, the exact number is not on record here.

Series [1] can be described thus: Dose normalized AUC in C57BL/6 mouse at 3 mg/kg, po by LC-MS/MS analysis. In kind it is ADME, organism-based. The conditions noted are these: in vivo.
Series [2] in a line: Dose normalized Cmax in C57BL/6 mouse at 1 mg/kg, iv bolus injection or 3 mg/kg, po by LC-MS/MS analysis. In kind it is ADME, organism-based. Particulars: in vivo.
Series [3] concerns the target T1, Coagulation factor XI (Homo sapiens, UniProt P03951). As to the kind of experiment: Inhibition of […] human plasma F11a catalytic domain expressed in Escherichia coli strain BL21(DE3) using D-Leu-Pro-Arg*Rh110-D-Pro as substrate preincubated for 60 mins followed by substrate addition and measured after 60 mins by fluorescence assay.
Another series concerns the target Complement factor D (Homo sapiens, UniProt P00746). In kind it is single protein.
The nature of series [4]: Terminal half life in C57BL/6 mouse at 1 mg/kg, iv bolus injection or 3 mg/kg, po by LC-MS/MS analysis. The format is ADME, organism-based. Particulars: in vivo, read-out: beta t1/2 (converted).
A short description of series [5]: Clearance in C57BL/6 mouse at 1 mg/kg, iv bolus injection or 3 mg/kg, po by LC-MS/MS analysis. In kind it is ADME, organism-based. The conditions noted are these: in vivo.
The nature of another series: physchem. Particulars: aqueous buffer, pH 6.8.
A short description of another series: in vitro. Particulars: human, Caco-2.
Series [6] deals with T1, Coagulation factor XI. As to the kind of experiment: Inhibition of human F11a using D-Leu-Pro-Arg*Rh110-D-Pro as substrate preincubated for 60 mins followed by substrate addition and measured after 60 mins by fluorescence assay.
For the next series, the target named is Plasma kallikrein (Homo sapiens, UniProt P03952). In kind it is single protein.
The conditions of series [7]: human, caco-2; BLD = below limit of detection.
Series [8] can be described thus: Volume of distribution at steady state in C57BL/6 mouse at 1 mg/kg, iv bolus injection or 3 mg/kg, po by LC-MS/MS analysis. The format is ADME, organism-based. Particulars: in vivo, read-out: Vdss.
The nature of series [9]: Oral bioavailability in C57BL/6 mouse at 3 mg/kg by LC-MS/MS analysis. In kind it is ADME, organism-based. Particulars: in vivo.
The next series is filed under the species Homo sapiens. As to the kind of experiment: Selectivity ratio of IC50 for inhibition of human complement FD to IC50 for inhibition of human F11a.
For the next series, the target named is Plasminogen (Homo sapiens, UniProt P00747). The format is single protein.
Series [10] is described as follows: Dose normalized Cmax in C57BL/6 mouse at 1 mg/kg, iv bolus injection or 10 mg/kg, po by LC-MS/MS analysis. Particulars: in vivo. In kind it is ADME, organism-based.
Series [11] in a line: Terminal half life in C57BL/6 mouse at 1 mg/kg, iv bolus injection or 10 mg/kg, po by LC-MS/MS analysis. In kind it is ADME, organism-based. Particulars: in vivo, read-out: beta t1/2 (converted).
A short description of series [12]: Lipophilicity, log D of compound at pH 6.8. In kind it is physicochemical. Particulars: buffer.
Series [13] is described as follows: Volume of distribution at steady state in C57BL/6 mouse at 1 mg/kg, iv bolus injection or 10 mg/kg, po by LC-MS/MS analysis. In kind it is ADME, organism-based. Particulars: in vivo, read-out: Vdss.
Another series addresses T2, Coagulation factor VII (Homo sapiens, UniProt P08709).
T2 sequence (P08709 whole entry): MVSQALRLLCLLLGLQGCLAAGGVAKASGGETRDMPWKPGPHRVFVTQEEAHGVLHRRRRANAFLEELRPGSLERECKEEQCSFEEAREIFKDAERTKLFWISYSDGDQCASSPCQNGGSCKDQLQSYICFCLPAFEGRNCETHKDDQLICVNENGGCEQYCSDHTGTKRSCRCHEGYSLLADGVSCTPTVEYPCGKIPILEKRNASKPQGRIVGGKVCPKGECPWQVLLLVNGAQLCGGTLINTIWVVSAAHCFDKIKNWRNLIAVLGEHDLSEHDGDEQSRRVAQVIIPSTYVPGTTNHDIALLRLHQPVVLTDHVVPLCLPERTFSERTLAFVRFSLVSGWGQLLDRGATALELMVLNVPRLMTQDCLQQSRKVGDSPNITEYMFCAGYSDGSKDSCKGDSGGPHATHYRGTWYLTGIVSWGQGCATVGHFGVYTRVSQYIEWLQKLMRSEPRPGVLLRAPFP
The format is single protein.

For series [14], the target named is Voltage-gated inwardly rectifying potassium channel KCNH2 (Homo sapiens, UniProt Q12809).
Series [15] in a line: Dose normalized AUC in C57BL/6 mouse at 1 mg/kg, iv by LC-MS/MS analysis. In kind it is ADME, organism-based. The conditions noted are these: in vivo.
Series [16] addresses T3, Urokinase-type plasminogen activator (Homo sapiens, UniProt P00749). In kind it is single protein.
The nature of series [17]: Tmax in C57BL/6 mouse at 0.4 mg/kg, iv bolus injection or 3 mg/kg, po by LC-MS/MS analysis. The conditions noted are these: in vivo. The format is ADME, organism-based.
A further series deals with Coagulation factor IX (Homo sapiens, UniProt P00740). The format is single protein.
The nature of series [18]: Volume of distribution at steady state in C57BL/6 mouse at 0.4 mg/kg, iv bolus injection or 3 mg/kg, po by LC-MS/MS analysis. The conditions noted are these: in vivo, read-out: Vdss. The format is ADME, organism-based.
The nature of series [19]: Terminal half life in C57BL/6 mouse at 0.4 mg/kg, iv bolus injection or 3 mg/kg, po by LC-MS/MS analysis. The format is ADME, organism-based. The conditions noted are these: in vivo, read-out: beta t1/2 (converted).
Series [20] has as its target Tissue-type plasminogen activator (Homo sapiens, UniProt P00750). The format is single protein.
Series [21] is described as follows: Dose normalized Cmax in C57BL/6 mouse at 0.4 mg/kg, iv bolus injection or 3 mg/kg, po by LC-MS/MS analysis. In kind it is ADME, organism-based. Particulars: in vivo.
Series [22] is described as follows: Clearance in C57BL/6 mouse at 0.4 mg/kg, iv bolus injection or 3 mg/kg, po by LC-MS/MS analysis. Particulars: in vivo. The format is ADME, organism-based.
The next series deals with Prothrombin (Homo sapiens, UniProt P00734). In kind it is single protein.
The nature of series [23]: Dose normalized AUC in C57BL/6 mouse at 0.4 mg/kg, iv bolus injection by LC-MS/MS analysis. The format is ADME, organism-based. Particulars: in vivo.
Another series deals with Coagulation factor X (Homo sapiens, UniProt P00742). The format is single protein.
For series [24], the target named is Prostaglandin G/H synthase 1 (Homo sapiens, UniProt P23219). The series is described as follows: Inhibition of COX1 (unknown origin).
The subject of series [25] is Plasma. As to the kind of experiment: Effect on coagulation in human plasma assessed as concentration required to double the prothrombin time by thromboplastin-DS reagent based automated coagulometric method. In kind it is ADME, cell-free.
The target of series [26] is Synaptic vesicular amine transporter (Homo sapiens, UniProt Q05940). As to the kind of experiment: Inhibition of VMAT2 (unknown origin).
The target of series [27] is T3, Urokinase-type plasminogen activator. In kind it is ADME.
Series [28] deals with 3',5'-cyclic-AMP phosphodiesterase 4D (Homo sapiens, UniProt Q08499). The series is described as follows: Inhibition of PDE4D (unknown origin).
Series [29] has as its system Plasma. The series is described as follows: Anticoagulant activity in human plasma assessed as concentration required to double the activated partial thromboplastin time incubated for 3 mins followed by calcium chloride addition by aPTT-s reagent based automated coagulometric method. The format is functional.

Chain of Plasminogen (P00747 97-580 limits assumed): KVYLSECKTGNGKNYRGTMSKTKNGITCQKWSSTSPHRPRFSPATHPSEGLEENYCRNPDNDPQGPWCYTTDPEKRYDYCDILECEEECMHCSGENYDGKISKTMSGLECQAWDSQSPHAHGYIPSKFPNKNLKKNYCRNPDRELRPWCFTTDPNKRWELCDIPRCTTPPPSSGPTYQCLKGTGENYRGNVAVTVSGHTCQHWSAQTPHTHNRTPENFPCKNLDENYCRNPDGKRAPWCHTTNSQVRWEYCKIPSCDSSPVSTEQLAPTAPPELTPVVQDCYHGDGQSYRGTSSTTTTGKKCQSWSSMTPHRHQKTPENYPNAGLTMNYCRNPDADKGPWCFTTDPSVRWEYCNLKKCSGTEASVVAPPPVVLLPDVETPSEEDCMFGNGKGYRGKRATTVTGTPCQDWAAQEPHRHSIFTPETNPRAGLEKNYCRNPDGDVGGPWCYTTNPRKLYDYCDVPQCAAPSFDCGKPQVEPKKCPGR
Chain of Plasminogen (P00747 581-810 limits assumed): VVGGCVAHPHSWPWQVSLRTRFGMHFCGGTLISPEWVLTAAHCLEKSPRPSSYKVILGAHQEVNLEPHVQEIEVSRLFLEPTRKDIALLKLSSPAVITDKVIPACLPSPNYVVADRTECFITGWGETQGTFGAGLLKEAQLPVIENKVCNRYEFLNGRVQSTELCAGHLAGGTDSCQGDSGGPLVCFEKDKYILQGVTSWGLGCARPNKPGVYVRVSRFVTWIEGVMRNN
T1 sequence (P03951 19-387 limits assumed): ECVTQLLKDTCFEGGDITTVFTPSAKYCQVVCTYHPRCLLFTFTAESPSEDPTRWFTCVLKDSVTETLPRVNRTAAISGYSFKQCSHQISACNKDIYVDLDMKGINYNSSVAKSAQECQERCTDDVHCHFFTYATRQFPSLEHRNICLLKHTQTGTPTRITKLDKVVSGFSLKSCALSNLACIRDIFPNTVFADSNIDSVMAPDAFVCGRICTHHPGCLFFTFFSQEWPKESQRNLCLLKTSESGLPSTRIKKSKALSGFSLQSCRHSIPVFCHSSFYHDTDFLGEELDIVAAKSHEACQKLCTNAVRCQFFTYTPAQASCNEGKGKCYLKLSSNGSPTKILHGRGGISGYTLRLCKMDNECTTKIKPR
T1 sequence (P03951 388-625 limits assumed): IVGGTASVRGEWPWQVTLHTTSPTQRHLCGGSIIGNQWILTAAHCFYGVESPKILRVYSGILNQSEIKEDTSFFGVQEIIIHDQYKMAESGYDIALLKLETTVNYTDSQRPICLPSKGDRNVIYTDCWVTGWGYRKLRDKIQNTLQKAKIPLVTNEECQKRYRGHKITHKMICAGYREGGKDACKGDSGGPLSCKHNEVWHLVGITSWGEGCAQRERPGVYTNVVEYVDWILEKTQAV
Chain of Plasma kallikrein (P03952 20-390 limits assumed): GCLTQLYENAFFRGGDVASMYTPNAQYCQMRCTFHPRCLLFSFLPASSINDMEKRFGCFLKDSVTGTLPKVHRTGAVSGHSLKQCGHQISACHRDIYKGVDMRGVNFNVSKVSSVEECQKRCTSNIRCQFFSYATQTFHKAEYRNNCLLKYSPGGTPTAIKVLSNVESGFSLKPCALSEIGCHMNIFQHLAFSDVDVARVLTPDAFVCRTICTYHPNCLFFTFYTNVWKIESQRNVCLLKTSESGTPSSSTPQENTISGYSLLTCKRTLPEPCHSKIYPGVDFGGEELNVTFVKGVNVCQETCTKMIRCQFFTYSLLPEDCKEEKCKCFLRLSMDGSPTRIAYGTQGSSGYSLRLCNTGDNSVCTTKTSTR
Chain of Plasma kallikrein (P03952 391-638 limits assumed): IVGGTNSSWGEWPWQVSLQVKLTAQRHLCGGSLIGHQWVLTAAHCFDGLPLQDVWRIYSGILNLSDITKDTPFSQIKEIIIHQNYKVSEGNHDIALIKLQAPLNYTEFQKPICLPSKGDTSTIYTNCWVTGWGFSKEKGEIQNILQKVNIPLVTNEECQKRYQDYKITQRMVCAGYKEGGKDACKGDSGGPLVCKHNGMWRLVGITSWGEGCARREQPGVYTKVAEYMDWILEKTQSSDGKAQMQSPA
Chain of Complement factor D (P00746 whole entry): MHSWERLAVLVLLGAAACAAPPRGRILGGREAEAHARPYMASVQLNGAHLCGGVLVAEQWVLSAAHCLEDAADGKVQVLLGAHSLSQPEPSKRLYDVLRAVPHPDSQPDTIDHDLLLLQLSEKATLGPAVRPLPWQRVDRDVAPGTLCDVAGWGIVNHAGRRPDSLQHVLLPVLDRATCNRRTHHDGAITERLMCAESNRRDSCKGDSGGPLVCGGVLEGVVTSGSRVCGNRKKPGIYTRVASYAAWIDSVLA
Chain of Coagulation factor X (P00742 41-179 limits assumed): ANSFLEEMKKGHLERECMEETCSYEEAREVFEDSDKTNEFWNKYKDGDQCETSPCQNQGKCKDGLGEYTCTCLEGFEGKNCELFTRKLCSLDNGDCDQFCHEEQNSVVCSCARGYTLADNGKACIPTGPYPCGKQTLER
Chain of Coagulation factor X (P00742 235-488 limits assumed): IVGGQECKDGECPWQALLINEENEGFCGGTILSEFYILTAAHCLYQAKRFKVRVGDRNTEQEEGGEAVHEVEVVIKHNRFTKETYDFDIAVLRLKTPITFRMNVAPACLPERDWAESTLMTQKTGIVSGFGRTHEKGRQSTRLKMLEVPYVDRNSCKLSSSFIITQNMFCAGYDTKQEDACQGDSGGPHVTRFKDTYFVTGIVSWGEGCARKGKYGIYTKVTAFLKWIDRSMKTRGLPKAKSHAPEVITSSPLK
Chain of Tissue-type plasminogen activator (P00750 whole entry): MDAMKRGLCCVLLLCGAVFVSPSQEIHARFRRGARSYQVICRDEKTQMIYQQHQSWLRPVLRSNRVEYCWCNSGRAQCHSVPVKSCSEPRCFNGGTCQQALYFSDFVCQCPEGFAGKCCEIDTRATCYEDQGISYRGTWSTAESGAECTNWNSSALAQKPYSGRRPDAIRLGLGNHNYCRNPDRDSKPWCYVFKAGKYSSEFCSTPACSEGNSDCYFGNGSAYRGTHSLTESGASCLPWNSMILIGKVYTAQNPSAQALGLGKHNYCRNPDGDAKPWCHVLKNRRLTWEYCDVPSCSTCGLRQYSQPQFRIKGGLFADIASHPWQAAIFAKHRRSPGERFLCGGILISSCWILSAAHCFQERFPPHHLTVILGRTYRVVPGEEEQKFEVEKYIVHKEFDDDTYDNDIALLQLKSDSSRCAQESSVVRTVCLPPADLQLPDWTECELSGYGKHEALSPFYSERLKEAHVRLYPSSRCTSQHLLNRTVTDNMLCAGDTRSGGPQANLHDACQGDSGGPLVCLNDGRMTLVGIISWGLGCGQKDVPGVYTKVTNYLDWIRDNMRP
Chain of Coagulation factor IX (P00740 47-191 limits assumed): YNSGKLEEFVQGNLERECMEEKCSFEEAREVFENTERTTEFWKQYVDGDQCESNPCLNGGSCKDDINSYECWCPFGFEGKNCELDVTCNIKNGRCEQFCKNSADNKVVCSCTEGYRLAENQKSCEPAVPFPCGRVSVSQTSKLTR
Chain of Coagulation factor IX (P00740 227-461 limits assumed): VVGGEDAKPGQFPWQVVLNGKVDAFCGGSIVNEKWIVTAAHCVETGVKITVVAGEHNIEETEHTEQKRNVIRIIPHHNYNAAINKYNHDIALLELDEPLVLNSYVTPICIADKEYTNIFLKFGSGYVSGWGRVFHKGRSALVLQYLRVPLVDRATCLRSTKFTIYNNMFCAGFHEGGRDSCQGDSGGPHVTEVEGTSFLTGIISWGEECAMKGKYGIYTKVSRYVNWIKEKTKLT
Chain of Prostaglandin G/H synthase 1 (P23219 whole entry): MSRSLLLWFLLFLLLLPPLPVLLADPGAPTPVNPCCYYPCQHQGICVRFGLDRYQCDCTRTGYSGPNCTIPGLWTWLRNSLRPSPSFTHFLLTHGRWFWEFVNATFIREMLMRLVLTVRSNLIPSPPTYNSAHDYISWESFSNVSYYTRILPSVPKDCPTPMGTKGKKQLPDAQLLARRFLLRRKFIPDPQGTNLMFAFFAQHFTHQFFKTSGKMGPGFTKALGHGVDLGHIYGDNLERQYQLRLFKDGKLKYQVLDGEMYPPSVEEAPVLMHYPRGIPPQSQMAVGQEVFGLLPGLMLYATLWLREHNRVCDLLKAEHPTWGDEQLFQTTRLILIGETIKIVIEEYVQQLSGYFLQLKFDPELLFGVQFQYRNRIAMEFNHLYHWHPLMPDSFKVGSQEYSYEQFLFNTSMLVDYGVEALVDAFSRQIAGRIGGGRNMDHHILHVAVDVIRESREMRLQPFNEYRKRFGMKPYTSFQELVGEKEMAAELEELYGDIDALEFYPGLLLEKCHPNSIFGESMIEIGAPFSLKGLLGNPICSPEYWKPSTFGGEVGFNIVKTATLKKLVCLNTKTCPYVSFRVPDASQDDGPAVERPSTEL
Chain of Synaptic vesicular amine transporter (Q05940 whole entry): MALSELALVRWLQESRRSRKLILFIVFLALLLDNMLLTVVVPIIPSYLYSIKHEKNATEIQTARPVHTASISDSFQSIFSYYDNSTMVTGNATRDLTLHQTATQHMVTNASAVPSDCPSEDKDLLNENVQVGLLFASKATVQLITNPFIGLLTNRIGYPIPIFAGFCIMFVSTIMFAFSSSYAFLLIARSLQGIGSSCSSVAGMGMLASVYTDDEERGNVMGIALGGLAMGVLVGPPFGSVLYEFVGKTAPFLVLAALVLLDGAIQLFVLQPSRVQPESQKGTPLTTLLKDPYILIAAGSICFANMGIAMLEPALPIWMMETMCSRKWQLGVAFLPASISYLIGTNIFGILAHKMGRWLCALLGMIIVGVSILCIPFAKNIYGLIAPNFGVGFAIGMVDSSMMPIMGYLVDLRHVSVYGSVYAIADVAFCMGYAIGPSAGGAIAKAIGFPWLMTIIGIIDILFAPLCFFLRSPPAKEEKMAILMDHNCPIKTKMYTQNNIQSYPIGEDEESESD

Regarding `CC(C)(O)c1cc(COc2ccccc2CC(=O)O)cc(-c2ccc3c(c2)[C@H](N)CO3)c1`, the AUC/dose in series [1] amounted to 186 nM·h. Moreover, in [2], the Cmax/dose came out at 99 nM. The half-inhibitory concentration (IC50) on Coagulation factor XI [3] worked out at 170 nM; against Complement factor D, 320 nM; on Coagulation factor XI [6] it was 4 nM; against Plasma kallikrein it was 6 nM. Also, in series [4], the half-life was 1.7 h. In [5], the clearance was determined as 19 mL/min/kg. For the same compound, the solubility (thermodynamic) in “physchem” was > 1000 µM. The Papp B→A in “in vitro” is 19 ×10⁻⁶ cm/s. The Papp entry in series [7] is recorded as “Bld”. In addition, the Vd in [8] stood at 0.4 L/kg. Moreover, the bioavailability in [9] came out at 3%. The Ratio IC50 in the series listed under Homo sapiens came to 40.
In the case of `NCc1cccc(-c2cccc(COc3ccccc3CC(=O)O)c2)c1`, the IC50 was 2200 nM against Plasminogen, 3100 nM against Plasma kallikrein, 1400 nM against Coagulation factor VII and > 30000 nM in [14]. In addition, the Cmax/dose in series [10] worked out at 2591 nM. Also, the half-life in [11] is 1.6 h. The same compound displayed a log distribution coefficient (logD) in series [12] of 1.91. In addition, the Vd in series [13] was determined as 0.7 L/kg. This compound registered an AUC/dose in series [15] of 3284 nM·h.
`CC(C)c1cc(CCN2CCc3cccc(C(=O)O)c32)cc(-c2ccc3c(c2)[C@H](N)CO3)c1`: the half-inhibitory concentration (IC50) in [16] came out at 520 nM; at Plasminogen, 2560 nM; against Coagulation factor XI [3], 220 nM; on Coagulation factor IX, 3300 nM; against Complement factor D it was 4410 nM; on Coagulation factor XI [6] it was 6 nM. The IC50 stood at 660 nM in [20]; 58 nM on Plasma kallikrein; 6230 nM against Coagulation factor VII; 3080 nM on Prothrombin; 1830 nM against Coagulation factor X. The AUC/dose worked out at 14041 nM·h in series [1] and 38652 nM·h in series [23]. Moreover, in series [17], the Tmax was determined as 0.7 h. Moreover, the Vd in series [18] was found to be 0.4 L/kg. Moreover, in series [19], the half-life is 9.2 h. Also, the Cmax/dose in series [21] was determined as 1495 nM. The compound also registered a clearance in series [22] of 1 mL/min/kg. In series [9], this compound came in with a bioavailability of 36%. Besides, the Ratio IC50 in the series listed under Homo sapiens worked out at 700.
Regarding `CC(C)c1cc(COc2ccccc2CC(=O)O)cc(-c2ccc3c(c2)[C@H](N)CO3)c1`, the half-maximal inhibitory concentration (IC50) in series [16] was 47 nM; against Plasminogen, 2600 nM; on Coagulation factor IX, 170 nM; against Complement factor D, 40 nM; in [24], 3300 nM; in series [26], 5200 nM. For the same compound, the IC50 in series [20] is 90 nM; in series [27], 47 nM; at Coagulation factor VII, 5100 nM; on Prothrombin, 90 nM; in series [28], 7200 nM; at Coagulation factor X, 500 nM. The compound further had an AUC/dose in series [1] of 48927 nM·h. Further, the Cmax/dose in [2] stood at 5263 nM. Further, in [4], the half-life was 5.5 h. The compound further registered a clearance in [5] of 1 mL/min/kg. Further, the 2PT with Plasma [25] came to 9.9 µM. Also, the Vd in [8] is 0.4 L/kg. This compound returned a bioavailability in series [9] of 100%. Further, the 2aPTT with Plasma [29] was 2.2 µM.
